Results from BigSolDB 2.1.

O=C(O)[C@@H]1C[C@@H](O)CN1
Conditions | solubility (mole fraction)
in 1,4-dioxane, 288.15 K | 0.00041
in 1,4-dioxane, 293.15 K | 0.00063
in 1,4-dioxane, 298.15 K | 0.00085
in 1,4-dioxane, 303.15 K | 0.00108
in 1,4-dioxane, 308.15 K | 0.00131
in 1,4-dioxane, 313.15 K | 0.00153
in 1,4-dioxane, 318.15 K | 0.00178
in 1,4-dioxane, 323.15 K | 0.00204
in 1,4-dioxane, 328.15 K | 0.00238
in 1,4-dioxane, 333.15 K | 0.00274
in 2-butanone, 283.15 K | 4.4e-05
in 2-butanone, 288.15 K | 7.9e-05
in 2-butanone, 293.15 K | 0.000128
in 2-butanone, 298.15 K | 0.00019
in 2-butanone, 303.15 K | 0.00028
in 2-butanone, 308.15 K | 0.000382
in 2-butanone, 313.15 K | 0.000483
in 2-butanone, 318.15 K | 0.000602
in 2-butanone, 323.15 K | 0.000723
in 2-butanone, 328.15 K | 0.000865
in 2-butanone, 333.15 K | 0.00101
in acetone, 283.15 K | 0.000922
in acetone, 288.15 K | 0.0011
in acetone, 293.15 K | 0.00139
in acetone, 298.15 K | 0.00164
in acetone, 303.15 K | 0.00205
in acetone, 308.15 K | 0.00235
in acetone, 313.15 K | 0.00277
in acetone, 318.15 K | 0.0032
in acetone, 323.15 K | 0.00383
in acetone, 328.15 K | 0.00441
in acetonitrile, 288.15 K | 3.3e-05
in acetonitrile, 293.15 K | 6.5e-05
in acetonitrile, 298.15 K | 0.000103
in acetonitrile, 303.15 K | 0.000146
in acetonitrile, 308.15 K | 0.000186
in acetonitrile, 313.15 K | 0.000226
in acetonitrile, 318.15 K | 0.000267
in acetonitrile, 323.15 K | 0.000315
in acetonitrile, 328.15 K | 0.000358
in acetonitrile, 333.15 K | 0.000416
in dichloromethane, 283.15 K | 0.000134
in dichloromethane, 288.15 K | 0.000221
in dichloromethane, 293.15 K | 0.000313
in dichloromethane, 298.15 K | 0.000412
in dichloromethane, 303.15 K | 0.000511
in dichloromethane, 308.15 K | 0.000614
in ethanol, 283.15 K | 7e-05
in ethanol, 288.15 K | 0.000109
in ethanol, 293.15 K | 0.000145
in ethanol, 298.15 K | 0.000188
in ethanol, 303.15 K | 0.000226
in ethanol, 308.15 K | 0.000273
in ethanol, 313.15 K | 0.000313
in ethanol, 318.15 K | 0.000378
in ethanol, 323.15 K | 0.000431
in ethanol, 328.15 K | 0.000512
in ethanol, 333.15 K | 0.000573
in ethyl acetate, 283.15 K | 0.000455
in ethyl acetate, 288.15 K | 0.000653
in ethyl acetate, 293.15 K | 0.000863
in ethyl acetate, 298.15 K | 0.00108
in ethyl acetate, 303.15 K | 0.00132
in ethyl acetate, 308.15 K | 0.00167
in ethyl acetate, 313.15 K | 0.0019
in ethyl acetate, 318.15 K | 0.00227
in ethyl acetate, 323.15 K | 0.00262
in ethyl acetate, 328.15 K | 0.00314
in ethyl acetate, 333.15 K | 0.00379
in isobutanol, 283.15 K | 6.9e-05
in isobutanol, 288.15 K | 8.2e-05
in isobutanol, 293.15 K | 9.7e-05
in isobutanol, 298.15 K | 0.000113
in isobutanol, 303.15 K | 0.000143
in isobutanol, 308.15 K | 0.000189
in isobutanol, 313.15 K | 0.000222
in isobutanol, 318.15 K | 0.000263
in isobutanol, 323.15 K | 0.000301
in isobutanol, 328.15 K | 0.000346
in isobutanol, 333.15 K | 0.000383
in isopropanol, 283.15 K | 3.5e-05
in isopropanol, 288.15 K | 6.8e-05
in isopropanol, 293.15 K | 9.9e-05
in isopropanol, 298.15 K | 0.000119
in isopropanol, 303.15 K | 0.000154
in isopropanol, 308.15 K | 0.000204
in isopropanol, 313.15 K | 0.000254
in isopropanol, 318.15 K | 0.00031
in isopropanol, 323.15 K | 0.00036
in isopropanol, 328.15 K | 0.000419
in isopropanol, 333.15 K | 0.000493
in methanol, 283.15 K | 0.000127
in methanol, 288.15 K | 0.000149
in methanol, 293.15 K | 0.000171
in methanol, 298.15 K | 0.000212
in methanol, 303.15 K | 0.000253
in methanol, 308.15 K | 0.000292
in methanol, 313.15 K | 0.000328
in methanol, 318.15 K | 0.000407
in methanol, 323.15 K | 0.000525
in methanol, 328.15 K | 0.000653
in methanol, 333.15 K | 0.000784
in methyl acetate, 283.15 K | 1.5e-05
in methyl acetate, 288.15 K | 4e-05
in methyl acetate, 293.15 K | 8e-05
in methyl acetate, 298.15 K | 0.000116
in methyl acetate, 303.15 K | 0.000153
in methyl acetate, 308.15 K | 0.000219
in methyl acetate, 313.15 K | 0.000278
in methyl acetate, 318.15 K | 0.000331
in methyl acetate, 323.15 K | 0.0004
in methyl acetate, 328.15 K | 0.000474
in n-butanol, 283.15 K | 8.8e-05
in n-butanol, 288.15 K | 0.0001
in n-butanol, 293.15 K | 0.000122
in n-butanol, 298.15 K | 0.000142
in n-butanol, 303.15 K | 0.000181
in n-butanol, 308.15 K | 0.000219
in n-butanol, 313.15 K | 0.000264
in n-butanol, 318.15 K | 0.000316
in n-butanol, 323.15 K | 0.000362
in n-butanol, 328.15 K | 0.00042
in n-butanol, 333.15 K | 0.0005
in n-pentanol, 283.15 K | 6.3e-05
in n-pentanol, 288.15 K | 8.4e-05
in n-pentanol, 293.15 K | 0.000114
in n-pentanol, 298.15 K | 0.000142
in n-pentanol, 303.15 K | 0.00017
in n-pentanol, 308.15 K | 0.000215
in n-pentanol, 313.15 K | 0.000321
in n-pentanol, 318.15 K | 0.000487
in n-pentanol, 323.15 K | 0.000628
in n-pentanol, 328.15 K | 0.000805
in n-pentanol, 333.15 K | 0.00104
in n-propanol, 283.15 K | 6.6e-05
in n-propanol, 288.15 K | 0.000109
in n-propanol, 293.15 K | 0.000126
in n-propanol, 298.15 K | 0.000154
in n-propanol, 303.15 K | 0.000203
in n-propanol, 308.15 K | 0.000253
in n-propanol, 313.15 K | 0.000304
in n-propanol, 318.15 K | 0.000355
in n-propanol, 323.15 K | 0.000409
in n-propanol, 328.15 K | 0.000456
in n-propanol, 333.15 K | 0.000502
in sec-butanol, 283.15 K | 3.8e-05
in sec-butanol, 288.15 K | 6.8e-05
in sec-butanol, 293.15 K | 9e-05
in sec-butanol, 298.15 K | 0.000129
in sec-butanol, 303.15 K | 0.000166
in sec-butanol, 308.15 K | 0.000205
in sec-butanol, 313.15 K | 0.000245
in sec-butanol, 318.15 K | 0.000293
in sec-butanol, 323.15 K | 0.000321
in sec-butanol, 328.15 K | 0.000365
in sec-butanol, 333.15 K | 0.000407
in water, 283.15 K | 0.0457
in water, 288.15 K | 0.0473
in water, 293.15 K | 0.0493
in water, 298.15 K | 0.0511
in water, 303.15 K | 0.053
in water, 308.15 K | 0.0554
in water, 313.15 K | 0.0571
in water, 318.15 K | 0.059
in water, 323.15 K | 0.0612
in water, 328.15 K | 0.0632
in water, 333.15 K | 0.0671
